Laboratory results reported in patent US11505797B2, “Gene knockout of variant NRF2 for treatment of cancer” (Christiana Care Health Services, Inc., priority 2019, dated 2022).
“Also recorded” adds a separate entry of the source.

How the values were obtained:
[1] = system: R34G-mutated NRF2 sequence; test: In vitro cleavage reaction, R34G-mutated NRF2 amplicons; assay type: biochemical, human; conditions: A549 R34G-6 amplicon, 0.5-5 pmol RNP, gel electrophoresis
Protocol: (§1) As proof of concept, an in vitro cleavage reaction was conducted to assess the level of discrimination using the R34G guide RNA in a ribonucleoprotein complex (RNP). The in vitro cleavage reaction encompasses complexing target specific-guide RNA with Cas9 protein to form a ribonucleoprotein (RNP). The RNP is incubated with DNA of interest (100 ng) and the reaction and cleavage products are visualized by gel electrophoresis. For this experiment, wildtype and R34G-mutated NRF2 PCR products (901 bp) from an NRF2 expression plasmid (FIG. 21) were incubated with R34G-targeting RNP complex (1 μM) and cleavage products were visualized by gel electrophoresis, shown in FIG. 22.
Once the sequences were verified, genomic DNA from each cell line was used to amplify exon 2 of NRF2. The PCR products (530 bp) from each cell line were then used in in vitro cleavage reactions under various parameters to test specificity and fidelity of the R34G-targeting RNP. For these cleavage reactions, expected cleavage products would appear at 385 and 145 bp as indicated by the red lines along the ladder, with uncut product appearing at 530 bp. FIG. 24 depicts the gel image from an in vitro cleavage reaction using wildtype NRF2 sequence from parental A549 cells and R34G-mutated NRF2 sequence from the A549 R34G-6 cells. An increasing concentration (0.5-5 pmol) of R34G-targeting RNP was used to determine the threshold and fidelity of the sequence. […] Uncut product (top band, 530 bp) can still be seen in lanes 7-10, which corresponds to the heterozygosity of the R34G mutation in the A549 R34G-6 cell line. Therefore, the wildtype NRF2 allele in the A549 R34G-6 cell line acts as an internal negative control.
Another in vitro cleavage reaction was conducted to assess the cleavage efficiency of the wildtype NRF2 sequence to ensure the R34G-targeting RNP was, in fact, not cleaving the wildtype NRF2 sequence because of the lack of the R34G mutation. A guide RNA with a cut site 29 bp upstream (labeled Neh2 RNP) from the R34G RNP cut site was selected and used as a positive cleavage control. […] Lanes 1-8 were reactions using wildtype NRF2 sequence while lanes 9-16 were reactions using R34G-mutated NRF2 sequence. In lanes 2-4 and 10-12, PCR products were incubated with increasing concentrations (1, 3 & 5 pmol) of RNP targeting the beginning of exon 2 (Neh2 RNP). The Neh2 guide RNA sequence is: 5′ […] 3′ (SEQ ID NO:13) which is a native CRISPR site and used as the positive control for cleavage for these reactions. […] In lanes 6-8 and 14-16, PCR products were incubated with increasing concentrations (1, 3 & 5 pmol) of R34G-targeting RNP. […] This further reinforces the specificity of the R34G-targeting RNP only recognizing the target DNA in the presence of the R34G mutation in exon 2 of NRF2. […]

wildtype NRF2 sequence = test: In vitro cleavage reaction, wildtype NRF2 amplicons; assay type: biochemical, human; conditions: A549 or H1703 parental amplicons, 0.5-5 pmol RNP, gel electrophoresis
Protocol: as §1
Once the sequences were verified, genomic DNA from each cell line was used to amplify exon 2 of NRF2. The PCR products (530 bp) from each cell line were then used in in vitro cleavage reactions under various parameters to test specificity and fidelity of the R34G-targeting RNP. For these cleavage reactions, expected cleavage products would appear at 385 and 145 bp as indicated by the red lines along the ladder, with uncut product appearing at 530 bp. FIG. 24 depicts the gel image from an in vitro cleavage reaction using wildtype NRF2 sequence from parental A549 cells and R34G-mutated NRF2 sequence from the A549 R34G-6 cells. […]

[2] = system: NRF2 knockout A549 cells (2-11); test: MTS cell proliferation assay, NRF2 knockout A549 cells (2-11); assay type: cell-based, human
Protocol: (§2) Cell viability was evaluated using the CellTiter 96 Aqueous Non-Radioactive Cell Proliferation Assay (Promega, Madison, Wis.). A549 cell lines were plated at 2×10^3 cells per well and allowed to culture for 24 hours. The cell media was then aspirated, the cells washed with PBS, then exposed to the MTS reagent for 3 hours. After 3 hours of MTS bio-reduction by proliferating cells, the formazan product's absorbance was measured using a 450 nm filter on an Infinite 2000 PRO microplate reader (Tecan, Mannadorf, Switzerland). Cell viability after drug exposure was evaluated using the CellTiter 96 Aqueous Non-Radioactive Cell Proliferation Assay. A549 cell lines were plated at 2×10^3 cells per well and allowed to culture for 24 hours. The cells were then treated with cisplatin, carboplatin, or a combination of cisplatin and vinorelbine for three days. The cell media was then aspirated, the cells washed with PBS, then exposed to the MTS reagent for 3 hours. After 3 hours of MTS bio-reduction by proliferating cells, the formazan product's absorbance was measured using a 450 nm filter on an Infinite 2000 PRO microplate reader.

[3] = system: NRF2 knockout A549 (2-11) tumors; test: Xenograft mouse model, NRF2 knockout A549 (2-11) tumors; assay type: in vivo, athymic nude mice; conditions: cisplatin 2 mg/kg
Protocol: (§3) The human xenograft model was established using methodology reported previously. Kellar et al., Biomed Res. Int. […] Female athymic nude mice (Envigo, 5-6 weeks old) were used in this study. Approximately 5×10^6 cells (wild type A549 or homozygous knockout (clonal expansion 2-11)) suspended in PBS with 20% Matrigel were injected subcutaneously into right flank of each mouse. Tumor volume was measured three times a week with a digital caliper once palpable, and calculated using the formula, tumor size=ab^2/2, where ‘a’ is the larger and ‘b’ is the smaller of the two dimensions. When tumors grew up to a mean volume of around 100 mm^3, A549 tumor bearing mice or A549-2-11 tumor bearing mice were randomly divided into 7 groups (N=5 for each group) respectively and subject to dose/regimen-finding study. […] Tumor volume and body weight was closely monitored over time. After 16 days, the animals were sacrificed, with tumor removed, weighed and processed for molecular analysis. Mice were euthanized. The data were expressed as mean±SD. Student's t-test and one-way or two-way ANOVA was used to assess the significance of difference. A P value<0.05 was considered significant.
(§4) A549 xenografts were resected on day 16, snap frozen in liquid nitrogen and stored in −80° C. until usage. All immunofluorescence staining was performed as previously described. Wang et al., Investig. Opthalmology Vis. […] Briefly, tumors were embedded in Optimum Cutting Temperature (Tissue Tek, Torrance, Calif., USA) and 16-μm-thick sections were obtained with a Leica CM3050 cryostat (Leica Microsystems, Buffalo Grove, Ill., USA), and mounted on slides. Slides were fixed and incubated with blocking buffer for 1 hour at room temperature. […] Sections were washed in PBS, then mounted with SlowFade Gold antifade mountant with DAPI (Invitrogen, Carlsbad, Calif., USA). Images were obtained with a Zeiss Observer.Z1 microscope (Carl Zeiss, Inc., Gottingen, Germany). The TUNEL assay was conducted with In Situ Cell Death Detection Kit, Fluorescein (Roche, Base, Switzerland), following the manufacturer's instructions. […]

[4] = system: A549 Neh2 KO clones 1-17, 2-16, 2-23; test: MTS assay of A549 Neh2 KO clones treated with cisplatin; assay type: cell-based, human; conditions: 1, 2, 3, 5, 10 uM cisplatin
Source text: The lung adenocarcinoma-derived cell line, A549, was used transfected with CRISPR/Cas9 designed to target exon 2 of NRF2 to create individual clones with random indel patterns. A total of three clones, 1-17, 2-16, and 2-23, were isolated and expanded. All three clones were collected for genomic DNA isolation and sanger sequencing to confirm the indels present. The DECODR program was used to deconvolute the sanger sequencing of each clone. The A549 cell line is polyploid and therefore, these clones contain 3 alleles of the NRF2 gene. Clone 1-17 contains −2, −2, −13 base pair deletions. Clone 2-16 contains a −1 base pair deletion across all alleles. Clone 2-23 contains two wildtype alleles and a −2 base pair deletion. A cell proliferation assay was used to assess the functionality of NRF2 after CRISPR targeting in combination with cisplatin treatment. […] Absorbance values for each clone and concentration were normalized by dividing the absorbance by the absorbance of each control well (0 μM). Normalized values for each clone at each concentration were then averaged across and standard error of the mean was calculated. […]
Several A549 NRF2 knockout clones were created and used for dose curves with Cisplatin and Carboplatin (0-10 uM concentration). […] These genomic profiles were analyzed by TIDE and DECODR. […]

wild type A549 tumors = test: Xenograft mouse model, wild type A549 tumors; assay type: in vivo, athymic nude mice; conditions: for tumor growth over 16 days: tail vein day 0, 3, 6, 9, cisplatin 2 mg/kg, cisplatin 5 mg/kg + vinorelbine 5 mg/kg, carboplatin 25 mg/kg
Protocol: as §3, §4

wild type A549 cells = test: MTS cell proliferation assay, wild type A549 cells; assay type: cell-based, human
Protocol: as §2

Row | Molecule | cleavage of R34G-mutated NRF2 amplicon (530 bp) [1] | cleavage of wildtype NRF2 amplicon (530 bp) (wildtype NRF2 sequence) | cisplatin concentration with loss of proliferation ([2]; 2-11 knockout A549, 72 hours) [µM] | chemosensitivity (MTS cell proliferation) ([2]; 2-11 knockout A549, increasing dosages, 72 hours) | Ki67 staining of xenograft tumors ([3]; day 16) | tumor growth over 16 days ([3]; tail vein day 0, 3, 6, 9, cisplatin 5 mg/kg + vinorelbine 5 mg/kg, carboplatin 25 mg/kg) | sensitivity to cisplatin (MTS), clones 1-17 and 2-16 [4] | sensitivity to cisplatin (MTS), clone 2-23 ([4]; two wildtype alleles and -2 bp deletion) | Ki67 staining of xenograft tumors (wild type A549 tumors; cisplatin 2 mg/kg versus saline, day 16) | tumor growth over 16 days (wild type A549 tumors) | tumor growth over 16 days (wild type A549 tumors; listed as Cisplatin) | cisplatin concentration at which proliferation is adversely affected (wild type A549 cells; wild type A549, 72 hours) [µM] | chemosensitivity (MTS cell proliferation) (wild type A549 cells; wild type A549, increasing dosages, 72 hours)
1 | 5′ TGGATTTGATTGACATACTTTGG 3′ [Neh2 RNP] | can be seen in both wildtype and R34G-mutated NRF2 sequences | can be seen in both wildtype and R34G-mutated NRF2 sequences |  |  |  |  |  |  |  |  |  |  | 
2 | N.N.[Cl][Pt][Cl] [cisplatin] |  |  | ≥ 1 | heightened sensitivity | substantially lower | proliferation of the implanted cells is arrested, and the tumor size is maintained at the same level; also recorded: smallest tumors; also recorded: significant reduction in tumor cell proliferation | relatively the same trend of sensitivity | even higher resistance than the wildtype cells | no difference in Ki67 levels | proliferate aggressively | not inhibited by the drug | ≥ 5 | resistant to high dosages of Cisplatin
